Data published in patent US20250034139A1, “AMINE COMPOUNDS HAVING ANTI-INFLAMMATORY, ANTIFUNGAL, ANTIPARASITIC, AND ANTICANCER ACTIVITY” (PHARMA CINQ, LLC, priority 2013, published 2025).

What was measured:
THP-1 cells = experiment: Example D: LPS-triggered THP-1 cell death assay, acute/5-hour and chronic/48-hour; assay type: cell-based, Human; details: 10 ng/ml LPS, 0.1 μM test compound, 48 hours
Method: Compounds of the invention were tested at 0.1 μM versus AC in the LPS-triggered THP-1 cell death assay. Both acute/5-hour and chronic/48-hour phases of cell death were assessed. Compounds were screened in batches with DMSO as the negative control and AC as the high activity control.

[1] = test system: PC3 human prostate cancer cells; experiment: Example S: in vitro anticancer screen, PC-3 cells, Wst1; assay type: cell-based; details: Homo sapiens, PC-3, approximately 20 hours, Wst1, read-out: PC-3, percent of cancer cell survival relative to vehicle treated cells
Method: Activity against PC3 human prostate cancer cells in vitro was assessed by a similar method. PC-3 prostate cancer cells were plated at 2×10^4 cells/well in 96 well flat bottom tissue culture plates, and incubated for approximately 20 hours with vehicle or test compounds at concentrations of 0.4, 0.5 or 2.5 μM as indicated for specific compounds in the right-hand column of Table 37. A 1/10th volume of Wst1 dye was added/well and incubated for two hours in the cell culture incubator. Samples were analyzed in triplicate on an EL800 Universal Microplate Reader at 450 nm, reference wavelength 630 nm.
(§1) Numerical values in the Table 37 represent percent of cancer cell survival relative to vehicle treated cells at the indicated concentrations, with values under 100 indicating anticancer cytotoxic activity at the drugs concentrations tested.

[2] = test system: PC-3 prostate cancer cells; experiment: Example T: sensitisation of PC-3 cells to doxorubicin, oxaliplatin, paclitaxel or vincristine, Wst1; assay type: cell-based, human; details: PC-3 cells, 72 hours; for viability at 2.5 µM / viability at 5 µM: Homo sapiens, Wst1, vehicle = 100, read-out: No Chemo: percent cell survival; for viability at 2.5 µM: compound 2.5 μM alone; for Doxorubicin 3.5 μM: percent cell survival / Oxaliplatin 100 μM: percent cell survival / Paclitaxel 50 μM: percent cell survival / Vincristine 100 nM: percent cell survival: chemotherapy agent alone normalized to 100%; for viability at 5 µM: compound 5 μM alone
[3] = test system: 4T1 murine breast cancer cells; experiment: Example S: in vitro anticancer screen, 4T1 cells, Wst1; assay type: cell-based, mouse; details: Mus musculus, 4T1, 18 h, 18 hr, Wst1; for viability at 1 µM: read-out: 4T1 1 μM, percent of cancer cell survival relative to vehicle treated cells; for viability at 5 µM: read-out: 4T1 5 μM, percent of cancer cell survival relative to vehicle treated cells
Method: Anticancer activity against 4T1 murine breast cancer cells cancer cells was assessed in vitro by seeding 1×10^4 cells/well in flat bottom culture plates, then treating with selected 1 μM or 5 μM concentrations of compounds for 18 hr after plating. Then 10 μL of Wst1 dye reagent, a tetrazolium dye indicator for […], was added/well and incubated approximately 2 hr before being assayed on the Biotek EL800 Universal microplate reader (450 nm, reference 630 nm).
as §1

[4] = compound 2.5 μM + doxorubicin 3.5 μM
[5] = compound 2.5 μM + oxaliplatin 100 μM
[6] = compound 2.5 μM + paclitaxel 50 μM
[7] = compound 2.5 μM + vincristine 100 nM
[8] = compound 5 μM + doxorubicin 3.5 μM
[9] = compound 5 μM + oxaliplatin 100 μM
[10] = compound 5 μM + paclitaxel 50 μM
[11] = compound 5 μM + vincristine 100 nM

SMILES	Viable cell percent change, Chronic/48-hour, Mean (THP-1 cells) [%]	viability at 2.5 µM [1] [%]	viability at 2.5 µM [2] [%]	Doxorubicin 3.5 μM: percent cell survival [2, 4] [%]	Oxaliplatin 100 μM: percent cell survival [2, 5] [%]	Paclitaxel 50 μM: percent cell survival [2, 6] [%]	Vincristine 100 nM: percent cell survival [2, 7] [%]	viability at 1 µM [3] [%]	viability at 5 µM [3] [%]	viability at 5 µM [1] [%]	viability at 5 µM [2] [%]	Doxorubicin 3.5 μM: percent cell survival [2, 8] [%]	Oxaliplatin 100 μM: percent cell survival [2, 9] [%]	Paclitaxel 50 μM: percent cell survival [2, 10] [%]	Vincristine 100 nM: percent cell survival [2, 11] [%]
CCOCCCCCCCCn1cnc2cnc3ccccc3c21 [CD, 1-(8-Ethoxyoctyl)-1H-imidazo[4,5-c]quinoline]	7.55	16.6	16.6	19.5	20.1	23.2	17.1								
COCCCCCCCCn1cnc2cnc3ccccc3c21 [CE, 1-(8-Methoxyoctyl)-1H-imidazo[4,5-c]quinoline]	4.71	16.2	16.2	44.3	18.8	23.5	15.6								
COCCCCCNc1ccnc2ccccc12 [CM, N-(5-Methoxypentyl)quinolin-4-amine]								104	221	37.8	37.8	72.6	78.1	74.8	81.3
CCOc1ccccc1OCCCNc1ccnc2ccccc12 [CS, N-[3-(2-Ethoxyphenoxy)propyl]quinolin-4-amine]	66.27	41.3	41.3	79	84.2	69.7	82.8								
COc1ccccc1OCCCNc1ccnc2ccccc12 [CT, N-[3-(2-Methoxyphenoxy)propyl]quinolin-4-amine]	34.36	34.5	34.5	63.2	71.9	46.3	46.3								
c1ccc(COc2ccccc2OCCCNc2ccnc3ccccc23)cc1 [CU, N-{3-[2-(Benyloxy)phenoxy]propyl}quinolin-4-amine]	41.84	37.6	37.6	65	74.9	100.2	56.7								
CCCCCCOc1ccccc1C(=O)NCCNc1ccnc2ccccc12 [EB, 2-(Hexyloxy)-N-[2-(quinolin-4-ylamino)ethyl]benzamide]	35.89	94.4	94.4	93.4	98.8	143.3	98.2								
CCCCCCOc1ccccc1C(=O)NCCCNc1ccnc2ccccc12 [EC, 2-(Hexyloxy)-N-[3-(quinolin-4-ylamino)propyl]benzamide]	47.40	94.6	94.6	82.8	100.4	136.8	91.6								
CCCCCCOCCCCCCCCNc1cnc2ccccc2c1 [EL, N-[8-(Hexyloxy)octyl]quinolin-3-amine]		41.8	41.8	73.7	99.4	86.1	70.8	108	39.4						
CCOCc1nc2cnc3ccccc3c2n1CC(C)(C)O [FB, 1-[2-(Ethoxymethyl)-1H-imidazo[4,5-c]quinolin-1-yl]-2-methylpropan-2-ol]		97.7	97.7	89.1	95.5	93.2	98.6	92.7	90						
CCCCCCCCCCCCCCCc1nc2c(O)nc3ccccc3c2n1CC(C)C [FD, 1-Isobutyl-2-pentadecyl-1H-imidazo[4,5-c]quinolin-4-ol]								106	112	112	112	101	85.3	95.6	98.7
CCCCCCCCCCCCCCCCn1cnc2cnc3ccccc3c21 [FE, 1-Hexadecyl-1H-imidazo[4,5-c]quinoline]								108	31.7	34.2	34.2	46.8	67.6	113.7	37.3
CCCCCCCCCCCCCCCCn1cnc2c(N)nc3ccccc3c21 [FF, 1-Hexadecyl-1H-imidazo[4,5-c]quinolin-4-amine]								103	102	93	93	90.7	95.2	136.1	110.1
CCCCCCCCCCCCOCCn1cnc2c(N(C)C)nc3ccccc3c21 [FH, 1-[2-(Dodecyloxy)ethyl]-N,N-dimethyl-1H-imidazo[4,5-c]quinolin-4-amine]								101	102	89	89	79.6	82.3	131.8	114.9
CCCCCCOCCCCCCCCn1cnc(-c2ccccc2)c1 [FR, 1-[8-(Hexyloxy)octyl]-4-phenyl-1H-imidazole]	15.96	101	101	93.2	102.5	102.5	99.1								
CCCCCCCCCCCCn1cnc2cnc3ccccc3c21 [FY, 1-Dodecyl-1H-imidazo[4,5-c]quinoline]		36	36	74.6	91.5	91	80.1	95.2	26.8						
CCCCCCCCCCOCCCn1cnc2cnc3ccccc3c21 [FZ, 1-[3-(Decyloxy)propyl]-1H-imidazo[4,5-c]quinoline]								91.4	56.6	32.7	32.7	39.6	67.7	114.8	38.5
CCCCCCOc1cccc(OCCCn2cnc3cnc4ccccc4c32)c1 [GD, 1-{3-[3-(Hexyloxy)phenoxy]propyl}-1H-imidazo[4,5-c]quinoline]		24.3	24.3	39.5	26.7	27	23.5								
